Assay results: ChEMBL document CHEMBL1201862, “PubChem BioAssay data set” (2004)
Active and inactive are the calls of the source.

Columns and labels:
[1] = target: FAD-linked sulfhydryl oxidase ALR (Homo sapiens, UniProt P55789); test: ALR-catalysed DTT oxidation blockers – biochemical, H2O2 detection, luminescence, cherry-pick, dose response (AID 493248)
cells = format: functional
[2] = target: T1, Zinc finger protein mex-5 (Caenorhabditis elegans, UniProt Q9XUB2); test: potency of MEX-5 RNA-binding blockers – biochemical, C. elegans, fluorescence polarization, dose response (AID 1960)
T1 sequence (Q9XUB2 whole entry): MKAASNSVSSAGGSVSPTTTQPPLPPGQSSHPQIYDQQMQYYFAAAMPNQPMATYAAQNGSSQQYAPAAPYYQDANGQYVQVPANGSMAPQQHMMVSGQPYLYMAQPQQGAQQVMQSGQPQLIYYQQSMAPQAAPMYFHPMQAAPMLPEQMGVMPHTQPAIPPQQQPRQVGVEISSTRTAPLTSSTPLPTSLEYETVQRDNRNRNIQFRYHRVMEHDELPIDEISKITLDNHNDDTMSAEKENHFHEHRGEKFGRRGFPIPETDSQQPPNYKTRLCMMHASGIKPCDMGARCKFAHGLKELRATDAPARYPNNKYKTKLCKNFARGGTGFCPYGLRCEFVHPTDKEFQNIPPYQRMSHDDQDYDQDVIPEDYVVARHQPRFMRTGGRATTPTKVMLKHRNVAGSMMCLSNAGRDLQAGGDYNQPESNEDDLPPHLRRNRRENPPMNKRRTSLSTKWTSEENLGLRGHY

[3] = target: T2, RNA-binding protein pos-1 (Caenorhabditis elegans, UniProt G5EF15); test: disruptors of C. elegans POS-1 RNA interaction – biochemical, fluorescence polarization, dose response (AID 1964);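 further: purified POS-1 fused to maltose binding protein made in E. coli; potency of compounds blocking POS-1 binding to fluorescent RNA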
T2 sequence (G5EF15 whole entry): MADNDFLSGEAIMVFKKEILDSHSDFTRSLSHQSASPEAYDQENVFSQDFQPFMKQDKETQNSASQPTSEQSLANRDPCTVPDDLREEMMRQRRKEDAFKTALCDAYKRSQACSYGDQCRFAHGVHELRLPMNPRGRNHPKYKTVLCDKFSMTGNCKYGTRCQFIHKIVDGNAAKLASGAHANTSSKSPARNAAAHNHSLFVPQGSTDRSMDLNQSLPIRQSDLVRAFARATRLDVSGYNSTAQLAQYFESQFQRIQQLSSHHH

[4] = target: T3, Replicative DNA helicase DnaB (Mycobacterium tuberculosis, UniProt P9WMR3); test: DnaB intein splicing inhibitors, dose response, biochemical, cell-free fluorescence (AID 449749); format: functional
T3 sequence (P9WMR3 whole entry): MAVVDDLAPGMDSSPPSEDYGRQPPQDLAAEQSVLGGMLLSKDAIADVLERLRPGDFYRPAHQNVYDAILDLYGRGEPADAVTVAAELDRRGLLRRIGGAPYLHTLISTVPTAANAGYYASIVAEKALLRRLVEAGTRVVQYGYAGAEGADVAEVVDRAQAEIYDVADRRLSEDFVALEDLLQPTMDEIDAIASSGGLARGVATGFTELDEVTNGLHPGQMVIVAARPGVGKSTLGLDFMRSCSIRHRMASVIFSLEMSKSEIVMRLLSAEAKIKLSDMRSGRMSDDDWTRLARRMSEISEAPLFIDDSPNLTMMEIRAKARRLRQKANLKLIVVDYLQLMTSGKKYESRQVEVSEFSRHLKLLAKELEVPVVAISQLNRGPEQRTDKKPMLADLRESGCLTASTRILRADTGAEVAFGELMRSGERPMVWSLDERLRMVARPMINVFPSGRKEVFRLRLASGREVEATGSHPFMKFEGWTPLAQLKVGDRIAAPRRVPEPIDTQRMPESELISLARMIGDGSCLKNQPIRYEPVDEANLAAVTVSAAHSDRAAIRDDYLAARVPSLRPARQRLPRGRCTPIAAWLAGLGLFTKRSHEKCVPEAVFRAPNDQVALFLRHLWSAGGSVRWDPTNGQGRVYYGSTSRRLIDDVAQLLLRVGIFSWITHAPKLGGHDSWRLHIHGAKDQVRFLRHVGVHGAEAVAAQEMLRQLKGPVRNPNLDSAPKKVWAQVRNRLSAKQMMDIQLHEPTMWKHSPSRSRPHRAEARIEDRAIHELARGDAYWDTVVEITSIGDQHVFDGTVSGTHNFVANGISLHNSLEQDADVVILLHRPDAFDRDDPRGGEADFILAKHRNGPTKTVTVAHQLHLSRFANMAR

Protein RecA = target: T4, Protein RecA (Mycobacterium tuberculosis, UniProt P9WHJ3); test: Fluorescence Cell-Free Homogeneous Dose Retest to Identify Inhibitors of RecA-Intein Splicing Activity. [Related pubchem assays (depositor defined):AID2097, AID2223, AID489010, AID492950]; format: functional
T4 sequence (P9WHJ3 whole entry): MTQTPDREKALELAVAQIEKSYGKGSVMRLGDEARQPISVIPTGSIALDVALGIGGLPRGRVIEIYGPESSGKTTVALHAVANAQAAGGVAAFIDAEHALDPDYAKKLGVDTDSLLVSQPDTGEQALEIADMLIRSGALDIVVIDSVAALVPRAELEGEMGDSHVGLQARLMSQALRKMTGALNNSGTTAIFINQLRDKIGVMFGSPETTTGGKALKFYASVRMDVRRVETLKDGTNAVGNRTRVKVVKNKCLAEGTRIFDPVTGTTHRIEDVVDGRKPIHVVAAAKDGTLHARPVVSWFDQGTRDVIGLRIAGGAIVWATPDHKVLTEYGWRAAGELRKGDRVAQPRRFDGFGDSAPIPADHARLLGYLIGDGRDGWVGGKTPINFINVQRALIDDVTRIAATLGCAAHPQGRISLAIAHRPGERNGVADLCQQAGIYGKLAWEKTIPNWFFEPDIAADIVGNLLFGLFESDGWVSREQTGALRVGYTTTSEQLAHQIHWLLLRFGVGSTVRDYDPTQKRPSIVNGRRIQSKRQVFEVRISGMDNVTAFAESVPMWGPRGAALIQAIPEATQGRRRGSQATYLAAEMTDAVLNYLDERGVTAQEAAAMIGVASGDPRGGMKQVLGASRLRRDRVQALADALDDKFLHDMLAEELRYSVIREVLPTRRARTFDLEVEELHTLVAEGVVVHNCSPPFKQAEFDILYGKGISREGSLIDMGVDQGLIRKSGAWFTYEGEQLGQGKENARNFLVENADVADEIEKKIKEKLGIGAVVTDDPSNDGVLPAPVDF

[5] = NIH3T3 cell viability loss – ATP luminescence, mouse fibroblasts, counter-screen, dose response (AID 2010); format: functional, cell-based;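 further: cells exposed to compound for about 90 hours before reading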
[6] = Trypanosoma cruzi growth suppression in host cells – NIH3T3 host cells, beta-gal luminescence, confirmation (AID 2044); format: functional, cell-based;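 further: intracellular parasites grown in NIH/3T3 mouse fibroblasts as host cells; luminescent beta-galactosidase reporter signal from transgenic T. cruzi replicating inside host cells; inhibitors lower the luminescence signal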
[7] = target: T5, Heat shock factor protein 1 (Mus musculus, UniProt P38532); test: enhancement of HSF1-driven luciferase signal – cell-based, NIH3T3, luminescence, dose retest, confirmation (AID 435004); format: functional;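 further: stress induced by proteasome inhibitor MG132 added 30 min after compound; luciferase reporter driven by HSF1 response element in NIH3T3 cells; actives raise luminescence as potentiators of the MG132 stress response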
T5 sequence (P38532 whole entry): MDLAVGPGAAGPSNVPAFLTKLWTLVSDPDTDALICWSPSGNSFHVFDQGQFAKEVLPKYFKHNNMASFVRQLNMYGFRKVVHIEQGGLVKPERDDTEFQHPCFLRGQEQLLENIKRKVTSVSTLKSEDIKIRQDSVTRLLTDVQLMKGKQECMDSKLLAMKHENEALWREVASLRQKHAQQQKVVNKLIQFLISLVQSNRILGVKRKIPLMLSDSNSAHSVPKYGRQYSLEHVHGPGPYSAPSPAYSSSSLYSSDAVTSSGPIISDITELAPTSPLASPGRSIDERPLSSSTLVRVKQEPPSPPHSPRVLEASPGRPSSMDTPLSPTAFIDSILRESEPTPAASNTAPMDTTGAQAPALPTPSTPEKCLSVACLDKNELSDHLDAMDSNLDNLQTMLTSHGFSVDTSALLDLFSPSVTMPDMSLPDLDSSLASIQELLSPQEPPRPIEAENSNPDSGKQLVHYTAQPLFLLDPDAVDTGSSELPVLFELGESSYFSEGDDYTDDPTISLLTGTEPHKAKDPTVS

[8] = target: T6, Ubiquitin-conjugating enzyme E2 N (Homo sapiens, UniProt P61088); format: functional;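 further: Dose-response confirmation in a TR-FRET assay detecting UBC13-driven polyubiquitin chain formation, inhibition measured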
T6 sequence (P61088 whole entry): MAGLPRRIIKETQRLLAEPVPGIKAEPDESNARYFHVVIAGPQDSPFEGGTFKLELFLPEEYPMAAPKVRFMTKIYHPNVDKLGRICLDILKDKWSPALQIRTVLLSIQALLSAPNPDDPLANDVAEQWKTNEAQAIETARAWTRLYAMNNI

[9] = non-specific 3'UTR reporter inhibition in Clone20-Shn3RL – cell-based, Renilla luciferase, cherry-picked, counter-screen for Shn3 inhibitor project, dose response (AID 624133); format: functional
[10] = viability of uninfected HEp-2 cells – cell-based, HTS, cytotoxicity control for RSV inhibitor project, dose response (AID 2410); format: functional; settings: human respiratory syncytial virus
[11] = reduction of Shn3 3'UTR-driven luciferase in osteoblasts – cell-based, Clone20 osteoblasts, firefly luciferase, cherry-picked, dose response (AID 624132); format: functional;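 further: firefly luciferase luminescence from reporter carrying the Shn3 3'UTR in osteoblasts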
[12] = microbe, parasite or virus in culture; format: functional; settings: Mycobacterium tuberculosis
[13] = target: Luciferin 4-monooxygenase (Photinus pyralis, UniProt P08659); test: inhibition of purified Photinus pyralis luciferase – biochemical, luminescence, dose response (AID 1891)
[14] = Luminescence Cell-Based Dose Confirmation HTS to Identify Inhibitors of Platelet Dense Granule Release. [Related pubchem assays: 1663 (Primary HTS), 1678 (Summary of Project)]; format: functional
[15] = alpha-synuclein stem-loop luciferase translation blockers – H4 neuroglioma cells, luminescence, confirmation (AID 1988); format: functional, cell-based
[16] = luciferase reporter signal suppression in cells – H4 neuroglioma cells, luminescence, dose response (AID 1990); format: functional, cell-based
[17] = Luminescence Cell-Based Dose Response HTS to Identify Inhibitors of 5'UTR Stem-Loop Driven Prion Protein mRNA Translation in H4 Neuroglioblastoma Cells. [Related pubchem assays: 1827 (Project Summary), 1813 (Primary HTS)]; format: functional

FAD-linked sulfhydryl oxidase ALR, sequence (P55789 whole entry): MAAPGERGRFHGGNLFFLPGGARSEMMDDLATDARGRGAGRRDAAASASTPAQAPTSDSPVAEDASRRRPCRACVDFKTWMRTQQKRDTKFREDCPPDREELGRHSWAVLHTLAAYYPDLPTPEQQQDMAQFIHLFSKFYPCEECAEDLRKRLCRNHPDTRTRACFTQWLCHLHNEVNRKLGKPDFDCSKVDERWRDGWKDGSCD
Luciferin 4-monooxygenase, sequence (P08659 whole entry): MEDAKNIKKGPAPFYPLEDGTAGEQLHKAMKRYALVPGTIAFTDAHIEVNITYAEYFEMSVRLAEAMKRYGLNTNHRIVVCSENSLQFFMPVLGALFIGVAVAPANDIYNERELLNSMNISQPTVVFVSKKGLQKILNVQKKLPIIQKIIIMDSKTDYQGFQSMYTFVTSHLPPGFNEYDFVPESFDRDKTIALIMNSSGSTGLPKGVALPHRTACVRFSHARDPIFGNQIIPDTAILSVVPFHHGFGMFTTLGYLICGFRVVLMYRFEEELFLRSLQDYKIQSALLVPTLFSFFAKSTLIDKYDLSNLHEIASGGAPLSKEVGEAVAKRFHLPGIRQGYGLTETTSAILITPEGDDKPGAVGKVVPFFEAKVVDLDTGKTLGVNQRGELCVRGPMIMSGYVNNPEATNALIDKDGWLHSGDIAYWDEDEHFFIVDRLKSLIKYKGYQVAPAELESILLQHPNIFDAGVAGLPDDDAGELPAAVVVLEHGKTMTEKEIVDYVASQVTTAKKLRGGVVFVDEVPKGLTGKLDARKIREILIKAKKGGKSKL

Cc1oc2cc3oc(=O)c(CC(=O)N[C@@H](C)C(=O)NC(Cc4ccc(Cl)cc4)C(=O)O)c(C)c3cc2c1C (some centres not stated)
AC50 [1]: 94.3 µM (active)

Cc1cccc(C)c1NC(=O)COC(=O)CCc1c[nH]c2ccccc12
IC50 (cells): 9.65 µM (active)

CCOc1cc(C(c2c(C)[nH][nH]c2=O)c2c(C)[nH][nH]c2=O)cc([N+](=O)[O-])c1O
EC50 [2]: 2.07 µM (active) | EC50 [3]: 16.3 µM (active) | AC50 [4]: 0.299 µM (active) | EC50 (Protein RecA): 0.219 µM (active)

O=C(Nc1ccc(Br)cc1)c1cc([N+](=O)[O-])cc([N+](=O)[O-])c1
EC50 [5]: > 60 µM (not active) | EC50 [6]: 190 nM (active) | IC50 (cells): 11.4 µM (active)

C=CCn1c(S)nnc1-c1cc(-c2ccccc2)sc1N
EC50 [7]: > 260 µM (inactive) | AC50 [1]: < 0.005 µM (active)

O=C(c1ccccc1)C1CN(Cc2ccccc2)CCC1(O)c1ccccc1 (configuration not stated)
IC50 (cells): 18.7 µM (active)

O=C(O)c1[nH]c2ccccc2c1NS(=O)(=O)c1ccc(F)cc1
AC50 [1]: 3.4 µM (active)

Cc1nn2c(nc(N3CCOCC3)c3ccccc32)c1C=C(C#N)C#N
IC50 [8]: > 20 µM (inactive)

O/N=C\c1ccc(-c2ccccc2)o1
AC50 [1]: 6.45 µM (active)

O=C(CCS(=O)(=O)c1ccccc1)Nc1nc2c(s1)CCCC2
AC50 [9]: 25.2 µM (active) | CC50 [10]: 18.5 µM (active)

Cc1ccc(-n2c(S)nnc2-c2cnccn2)cc1
AC50 [1]: 6.42 µM (active)

CC(C)C(=O)NCCSc1c[nH]c2ccccc12
AC50 [1]: 3.12 µM (active)

CC(C)(C)OC(=O)N/N=C\c1ccc(OC(=O)c2ccco2)cc1
IC50 (cells): 39.5 µM (active) | AC50 [4]: 34.5 µM (active) | EC50 (Protein RecA): 16.2 µM (active)

COc1ccccc1NC(=O)COC(=O)c1cc(C)nc2ccccc12
IC50 [8]: > 20 µM (inactive)

COC(=O)[C@@]12CCCCN1[C@H](c1ccc(SC3CCCCC3)c(OC)c1)[C@@H]1C(=O)N(C)C(=O)[C@@H]12
AC50 [11]: 21.4 µM (active) | AC50 [9]: 24.2 µM (active)

CC(=O)Nc1ccc(S(=O)(=O)N[C@@H](C)C(=O)N2CCN(c3ccccn3)CC2)cc1
AC50 [1]: 1.37 µM (active)

CCOc1ccc(OCCSc2ccc(S(=O)(=O)N3CCN(C)CC3)cn2)cc1
CC50 [12]: > 40 µM (active) | IC50 (cells): 19.3 µM (active)

C[C@@H](CN1C2=NC[C@H](Cc3ccccc3)N2C[C@H]1Cc1ccc(O)cc1)NC(=O)CCC1CCCCC1
IC50 [8]: > 20 µM (inactive)

Nc1ccc(-c2nc3cc(N)ccc3o2)cc1
EC50 [13]: > 112 µM (not active) | EC50 [14]: 29.6 µM (active) | AC50 [1]: 0.289 µM (active)

Cc1cccc(N2CC(C(=O)Nc3ccccc3N3CCCC3)CC2=O)c1C (configuration not stated)
AC50 [1]: 1.93 µM (active)

N=c1c(S(=O)(=O)c2ccc(Cl)cc2)cc2c(=O)n3ccccc3nc2n1C1CCCCC1
EC50 [15]: > 120 µM (not active) | EC50 [2]: 125 µM (active) | EC50 [16]: 83.2 µM (active) | EC50 [3]: 82.7 µM (inconclusive) | EC50 [17]: 14.1 µM (active)

CN(C)c1ncnc2c1C(c1ccccc1)C(C)(C)O2 (configuration not stated)
AC50 [11]: > 70 µM (inactive)

Cc1ccc(NC2CCCN(C(=O)CCCN3CCCCC3=O)C2)cc1C (configuration not stated)
AC50 [1]: 8.32 µM (active)

CCc1nnc(NC(=O)c2cc3ccccc3oc2=O)s1
IC50 (cells): 0.81 µM (active)

CCCCOc1ccc(C(=O)NNC(=O)c2cnccn2)cc1OC
IC50 [8]: > 20 µM (inactive)
